Results from patent US9521848B2, “Tetrazolinone compound and use therefor” (Sumitomo Chemical Company, Limited, priority 2013, dated 2016).

Experiments:
[1] = test system: wheat rust fungus (Puccinia recondita); experiment: Wheat rust control test, foliar spray before inoculation (Test Examples 3, 4, Comparative Test Example); assay type: in vivo; conditions: 200 ppm foliar spray, wheat (SHIROGANE), inoculated 5 days after spraying
Experimental: The control effect was evaluated by visually observing the area of lesion spots on each of test plants at the time of investigation, and comparing the area of lesion spots on a plant treated with the present compound with that on an untreated plant.
Each of plastic pots was filled with sandy loam and wheat (cultivar: SHIROGANE) was sowed and grown in a greenhouse for 9 days. Then, each water dilution containing a surfactant prepared by adjusting so as to contain a predetermined concentration (500 ppm) of any one compound of the present compounds 1, 18, 19, 20, 21, 27, 30, and 38 was sprayed over stems and leaves of the wheat so that it sufficiently adhered to the surface of the leaves of the wheat. After spraying, the plant was air-dried so as to dry the dilution on the surface of the leaves. After spraying, the plant was air-dried and cultivated at 20° C. for 5 days under illumination, and then inoculated by sprinkling with spores of wheat rust fungus (Puccinia recondita). After the inoculation, the plant was left to stand at 23° C. for one day under dark and high humidity condition, and cultivated under illumination at 20° C. for 8 days, and then the area of lesion spots was investigated.
Each of plastic pots was filled with sandy loam and wheat (cultivar: SHIROGANE) was sowed and grown in a greenhouse for 9 days. […]

[2] = test system: cotton aphid (Aphis gossypii); experiment: Cotton aphid control test on cucumber, spray (Test Example 19); assay type: in vivo; conditions: 500 ppm, 20 mL sprayed on cucumber with 30 aphids; surviving insects counted after 6 days
Experimental: A water dilution (test chemical solution) containing a surfactant prepared by adjusting so as to contain a predetermined concentration (500 ppm) of the present compound 21 was used as a test chemical solution. Thirty (30) heads of cotton aphid (Aphis gossypii) (including adults and larvae) were released on the leaves of cucumber (cultivar; […]) grown in a polyethylene cup until the first true leaf was developed. Next day, 20 mL of the above test chemical solution was sprayed. After 6 days, the number of the surviving insects was counted and the control value was calculated by the following equation. Control value (%)={1-(Cb×Tai)/(Cai×Tb)}×100 wherein symbols in the equation represent the followings: Cb: Number of insects before spraying chemical solution in untreated area; Cai: Number of surviving insects in untreated area; Tb: Number of insects before spraying chemical solution in treated area; and Tai: Number of surviving insects in treated area.

| SMILES | area of lesion spots on the treated plant relative to that on an untreated plant [1] [%] | control value [2] [%] |
| --- | --- | --- |
| Cc1cccc(-n2nnn(C)c2=O)c1COc1cncc(Oc2ccccc2)c1 [1-[2-{5-phenoxypyridin-3-yloxymethyl}-3-methylphenyl]-4-methyl-1,4-dihydrotetrazol-5-one] | ≥ 70 |  |
| Cc1ccc(-c2cnc(OCc3c(C)cccc3-n3nnn(C)c3=O)c(C)c2)cc1 [Present Compound 21] |  | ≥ 90 |
